The text below walks through data of patent US20150223452A1, “COMPOSITION COMPRISING A PESTICIDAL TERPENE MIXTURE AND A FUNGICIDE” (priority 2012, published 2015).

The test system of one assay is Phytophthora infestans. The assay is classed as in vivo. The following applies: 3 days after inoculation.
The next assay deals with Venturia inaequalis. The assay is described as follows: Venturia test (apples)/preventive.
A further assay concerns Sphaerotheca fuliginea. Put plainly: Sphaerotheca test (cucumbers)/preventive. Format: in vivo. The conditions noted are these: 7 days after inoculation.
Assay [1] deals with green peach aphid (Myzus persicae). Put plainly: Myzus persicae spray test. Format: in vivo. The conditions noted are these: 500 g ai/ha; mortality, Chinese cabbage leaf-disks. As for the experimental part:
(§1) Solvent: 78.0 parts by weight acetone • 1.5 parts by weight dimethylformamide
(§2) Emulsifier: 0.5 parts by weight alkylarylpolyglycolether
(§3) To produce a suitable preparation of active compound, 1 part by weight of active compound is mixed with the stated amount of solvent and emulsifier, and the concentrate is diluted with emulsifier-containing water to the desired concentration.
Chinese cabbage (Brassica pekinensis) leaf-disks infected with all instars of the green peach aphid (Myzus persicae) are sprayed with a preparation of the active ingredient of the desired concentration.
After the specified period of time, mortality in % is determined. 100% means that all aphids have been killed; 0% means that none of the aphids have been killed. The mortality values determined thus are recalculated using the Colby-formula (see above).

The test system of another assay is Botrytis cinerea. Put plainly: Botrytis test (beans)/preventive. The following applies: 10 ppm a.i.; size of lesions 2 days after inoculation.
Assay [2] relates to two spotted spidermite (Tetranychus urticae). The assay is described as follows: Tetranychus urticae spray test, OP-resistant. The assay is classed as in vivo. The following applies: 500 g ai/ha; mortality, French beans. Here is the method:
as §1, §2, §3
French beans (Phaseolus vulgaris) which are heavily infested with all stages of the two spotted spidermite (Tetranychus urticae), are sprayed with a preparation of the active ingredient of the desired concentration.
After the specified period of time, mortality in % is determined. 100% means that all spider mites have been killed and 0% means that none of the spider mites have been killed. The mortality values determined thus are recalculated using the Colby-formula (see sheet 1).

Like-named read-outs stand apart in the source and are kept apart here.

Experimental for Botrytis cinerea: After the spray coating has dried on, 2 small pieces of agar covered with growth of Botrytis cinerea are placed on each leaf.
2 days after the inoculation, the size of the lesions on the leaves is evaluated.

Regarding `CO/C=C(/C(=O)OC)c1ccccc1Oc1cc(Oc2ccccc2C#N)ncn1` [Azoxystrobin (F107), azoxystrobin], in the assay on Phytophthora infestans (0.5 ppm a.i.), the “Efficacy in % found” value turned out to be 30%. As for `O=C(NCCc1ncc(C(F)(F)F)cc1Cl)c1ccccc1C(F)(F)F` [F70 fluopyram, fluopyram], the “Efficacy in % found” value in the assay on Venturia inaequalis (4 ppm a.i., first series) came to 4%. For the molecule `Cn1cc(C(=O)Nc2ccccc2-c2cc(F)c(F)c(F)c2)c(C(F)F)n1` [F72 fluxapyroxad, fluxapyroxad], the “Efficacy in % found” value with Venturia inaequalis (0.5 ppm a.i., first series) is recorded as 43%; in the assay with Sphaerotheca fuliginea (1 ppm a.i.) it was 29%. For the molecule `Cc1nn(C)c(F)c1C(=O)Nc1ccccc1C(C)CC(C)C` (stereo not drawn) [F84 penflufen, penflufen], the “Efficacy in % found” value in the assay on Venturia inaequalis (2 ppm a.i., first series) stood at 0%.

On to `CSC1=N[C@@](C)(c2ccccc2)C(=O)N1Nc1ccccc1` [Fenamidone (F114), fenamidone], for which the “Efficacy in % found” value in the assay with Sphaerotheca fuliginea (50 ppm a.i.) is listed as 20%. On to `N#Cc1c[nH]cc1-c1cccc2c1OC(F)(F)O2` [Fludioxonil (F248), fludioxonil], for which the “Efficacy in % found” value with Sphaerotheca fuliginea (50 ppm a.i.) is given as 62%. Take `CC(C)Oc1cccc(NC(=O)c2ccccc2C(F)(F)F)c1` [Flutolanil (F71), flutolanil]: the “Efficacy in % found” value with Venturia inaequalis (100 ppm a.i., second series) is on record as 4%.

As to `COCC(=O)N(c1c(C)cccc1C)C(C)C(=O)OC` (stereo not drawn) [Metalaxyl (F241), metalaxyl], in the assay on Phytophthora infestans (5 ppm a.i.), the “Efficacy in % found” value was found to be 5%. As to `COC(=O)N(OC)c1ccccc1COc1ccn(-c2ccc(Cl)cc2)n1` [Pyraclostrobin (F121), pyraclostrobin], the “Efficacy in % after 6 d” value in assay [1] worked out at 70%. As to `CCCN(CC)CC1COC2(CCC(C(C)(C)C)CC2)O1` (stereo not drawn) [Spiroxamine (F46), spiroxamine], in the assay with Sphaerotheca fuliginea (50 ppm a.i.), the “Efficacy in % found” value turned out to be 19%. Take fenhexamid [Fenhexamid (F16)]: the “Efficacy in % found” value with Botrytis cinerea worked out at 880%.

Turning to fosetyl-aluminium [Fosetyl-Al (F281)], the “Efficacy in % after 6 d” value in assay [2] was 70%. Take mancozeb [Mancozeb (F174)]: in the assay with Phytophthora infestans (20 ppm a.i.), the “Efficacy in % found” value was 45%. With “metalaxyl-M (mefenoxam) [Mefenoxam (F242)]”, in the assay with Phytophthora infestans (5 ppm a.i.), the “Efficacy in % found” value is on record as 3%.
